# Assay results published in PubChem BioAssay AID492959 (The Scripps Research Institute Molecular Screening Center, 2010).
# Activity calls are given as the source filed them.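 How the source made its calls: active means IC50 of 10 µM or lower; inactive means IC50 above 10 µM.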
# Test system: E. coli AddAB+ with T4 gene 2 phage, OD growth
# Assay: inhibition of AddAB recombination enzyme – absorbance, E. coli, T4 phage, dose response (AID 492959);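 further: growth read as OD600 after 18 h at 37 °C; AddAB inhibitors let the phage kill the cells so OD falls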
# [1] = AddAB enzyme is from H. pylori, T4 phage with nonsense-mutated gene 2
SMILES,IC50 [1],IC50
c1ccc(-c2nnc(-c3ccccn3)nc2NC2CCCCC2)cc1,92 µM (inactive),–
CCC(C)NC(=O)c1cn(CC)c2cc(N3CCN(C(=O)c4ccco4)CC3)c(F)cc2c1=O (configuration not stated),17.6 µM (inactive),–
CCCC(=O)NC(c1ccccc1)c1ccc2cccnc2c1O (configuration not stated),> 119 µM (inactive),–
Cc1c(Br)c([N+](=O)[O-])nn1C(C)C(=O)NCc1ccco1 (configuration not stated),> 119 µM (inactive),–
O=C(CCN1CCN(c2ccccc2)CC1)N/N=C/c1ccc([N+](=O)[O-])o1,29.3 µM (inactive),–
O=C(O)CC1S/C(=N/N=C/c2ccccn2)NC1=O (configuration not stated),> 118 µM (inactive),–
O=C(CSC1=NNC(c2ccccn2)S1)Nc1ccccc1 (configuration not stated),> 118 µM (inactive),–
O=Nc1c2nc3ccccc3n(O)c-2c2ccccc12,> 119 µM (inactive),–
COc1ccc(-c2cc(N3CCCC3)n3ncnc3n2)cc1,> 119 µM (inactive),–
NC(=O)c1ccsc1NC(=O)COC(=O)c1ccc([N+](=O)[O-])o1,4.75 µM,–
O=c1nc(N/N=C/c2ccccn2)cn[nH]1,36 µM (inactive),–
O=C1c2ccccc2NC(c2ccc(-c3ccc(C(F)(F)F)cc3)o2)N1O (configuration not stated),> 119 µM (inactive),–
O=C(N/N=C/c1c(O)ccc2ccccc12)c1ccc(Br)o1,> 119 µM (inactive),–
O=C(Nc1ccc([N+](=O)[O-])cc1)Nc1ccc(OC(F)F)c(Cl)c1,> 119 µM (inactive),–
CCCCOc1ccc(Cc2cnc(N)nc2N)cc1,79.6 µM (inactive),–
CCCC(=O)NC(c1ccccc1OC)c1ccc2cccnc2c1O (configuration not stated),> 119 µM (inactive),–
CC(=O)N(O)CCCCCNC(=O)CCC(=O)N(O)CCCCCNC(=O)CCC(=O)N(O)CCCCCNC(=O)CCC(=O)O,> 118 µM (inactive),–
O=C(N/N=C\c1cccc(Cl)c1)c1ccc(Cn2cc(Br)c([N+](=O)[O-])n2)o1,> 119 µM (inactive),–
NC(=S)N/N=C/c1ncc(C(F)(F)F)cc1Cl,> 119 µM (inactive),–
COc1ccccc1/C=C1\SC(=S)N(CCC(=O)NNC(=O)c2ccccc2O)C1=O,> 119 µM (inactive),–
CCCCC(=O)NC(c1ccc(Cl)cc1)c1ccc2cccnc2c1O (configuration not stated),> 119 µM (inactive),–
Oc1cccc(C(Nc2nccs2)c2ccc3cccnc3c2O)c1 (configuration not stated),> 119 µM (inactive),–
O=C1CCC(=O)N(O)CCCCCNC(=O)CCC(=O)N(O)CCCCCNC(=O)CCC(=O)N(O)CCCCCN1,> 119 µM (inactive),–
O=C(c1ccccc1)c1c2c(cc3sc4ccccc4[n+]13)-c1cccc3cccc-2c13,14.7 µM (inactive),–

SMILES,IC50 [1],IC50
CCC(=O)NC(c1cccs1)c1cc(Cl)c2cccnc2c1O (configuration not stated),> 119 µM (inactive),–
COc1cccc(/C=N\NC(=O)c2ccc(Cn3cc(Br)c([N+](=O)[O-])n3)o2)c1O,36.6 µM (inactive),–
O=C(/C=C1\NC2(CCCC2)Cc2ccccc21)C(=O)N/N=C/c1ccccc1O,> 119 µM (inactive),–
CCCC(=O)NC(c1ccc2c(c1)OCO2)c1cc(Cl)c2cccnc2c1O (configuration not stated),> 119 µM (inactive),–
O=C(NNC(=O)C1CCN(S(=O)(=O)c2ccccc2C(F)(F)F)CC1)c1ccccc1O,> 119 µM (inactive),–
Cc1cc(N/N=C/c2ccc([N+](=O)[O-])o2)nc2ccccc12,37.6 µM (inactive),–
O=C(N/N=C/c1ccc(O)cc1O)C(=O)N/N=C/c1ccc(O)cc1O,> 119 µM (inactive),–
CCCC(=O)NC(c1ccc(Cl)cc1Cl)c1ccc2cccnc2c1O (configuration not stated),> 119 µM (inactive),–
Cc1ccc(-c2oc3ccccc3c(=O)c2O)cc1,> 119 µM (inactive),–
Cn1c(O)c(/C=N/NC(=O)c2cc3ccccc3cc2O)c2ccccc21,> 119 µM (inactive),–
O=C(COC(=O)COc1ccccc1)Nc1ncc([N+](=O)[O-])s1,> 39.5 µM (inactive),–
Cc1ccc(C[n+]2c(-c3ccc(C)cc3)cc(-c3ccc(C)cc3)cc2-c2ccc(C)cc2)cc1,–,18.4 µM (inactive)
C=CCn1c(O)c(N=Nc2ccccc2O)c2ccccc21,15.2 µM (inactive),–
N/C(=N/OC(=O)c1ccccc1Cl)c1ncc([N+](=O)[O-])s1,93.1 µM (inactive),–
Oc1ccc(N=Nc2ccc3c(c2)OCCO3)c2ncccc12,> 119 µM (inactive),–
Cc1ccc2nc(/C(C#N)=C\c3ccc([N+](=O)[O-])o3)[nH]c2c1,4.86 µM,–
COc1cccc(/C=N/NC(=O)c2[nH]c(C)c(C(=O)N/N=C/c3cccc(OC)c3O)c2C)c1O,> 119 µM (inactive),–
O=C(CSc1nc2ccccc2o1)Nc1ccc(N2CCOCC2)cc1,> 119 µM (inactive),–
CCOC(=O)c1cn(CC)c2cc(N3CCSCC3)c(F)cc2c1=O,47.8 µM (inactive),–
Oc1ccccc1N=Nc1nc(-c2ccccc2)c(-c2ccccc2)[nH]1,> 119 µM (inactive),–
COc1ccc(/C=C2\SC(=O)N(CC(=O)NNC(=O)c3ccccc3O)C2=O)cc1OC,> 119 µM (inactive),–
COc1c(O)c(O)c2oc(-c3ccccc3)cc(=O)c2c1OC,> 119 µM (inactive),–
Cc1cc(C(C)(C)C)cc(C)c1CC1=NCCN1,19.4 µM (inactive),–
